Measurements as given in patent US9758516B2, “Crystalline form of an anxiolytic compound” (Bionomics Limited, priority 2013, dated 2017).

What was measured:
[1] = reported, see U.S. Pat. No. 8,293,737; cited from earlier work
[2] = Stability study of Form B stored at about 25° C. and about 60% r.h. (HPLC, XRPD, IR); assay type: physicochemical; set-up: key to XRPD / IR: The term “complies” refers to substantially the same XRPD pattern and/or IR spectrum as the sample at the incept of the storage (time point=initial); settings: for Concentration of compound 1 by HPLC Assay (anhydrous basis) / IR / XRPD: about 25° C., about 60% r.h.
Description: A sample of Form B was stored at about 25° C. and about 60% r.h. for a period of time (e.g., 24 months). The concentration of compound 1 in the sample was assayed using HPLC, XRPD, and IR at different time points. The term “complies” refers to substantially the same XRPD pattern and/or IR spectrum as the sample at the incept of the storage (time point=initial).

[3] = Stability study of Form B stored at about 40° C. and about 75% r.h. (HPLC, XRPD, IR); assay type: physicochemical; set-up: key to XRPD / IR: The term “complies” refers to substantially the same XRPD pattern and/or IR spectrum as the sample at the incept of the storage (time point=initial); settings: for Concentration of compound 1 by HPLC Assay (anhydrous basis) / IR / XRPD: about 40° C., about 75% r.h.
Description: Standard solutions of the SP196-FD-P1 free drug of compound 1 and the L-malate salt of compound 1 (SP196-MLA-P4) were prepared in the concentration range of 0.2-0.05 mg/mL for the construction of a calibration curve.
Another sample of Form B was stored at about 40° C. and about 75% r.h. for a period of time (e.g., 6 months). The concentration of compound 1 in the sample was assayed using HPLC, XRPD, and IR at different time points. The term “complies” refers to substantially the same XRPD pattern and/or IR spectrum as the sample at the incept of the storage (time point=initial).

[4] = Dynamic vapor sorption (DVS) measurement, hygroscopicity; assay type: physicochemical
Description: Projekt Messtechnik Sorptions Prüfsystem SPS 11-100n or Surface Measurement Systems DVS-1. The sample was placed on an aluminum or platinum holder on top of a microbalance and allowed to equilibrate for 2 h at 50% r.h. before starting one of two pre-defined humidity programs:
(2) 50→0% r.h. (5%/h); 5 h at 0% r.h.;
(3) 0→95% r.h. (5%/h); 5 h at 95% r.h.; and
The hygroscopicity was classified based on the mass gain at 85% r.h. relative to the initial mass as follows: deliquescent (sufficient water adsorbed to form a liquid), very hygroscopic (mass increase of ≧15%), hygroscopic (mass increase <15% and ≧2%), slightly hygroscopic (mass increase <2% and ≧0.2%), or non-hygroscopic (mass increase <0.2%).
During the DVS measurement (FIG. 4), the relative humidity was first lowered from 50% r.h. to 0% r.h., then raised from 0% r.h. to 95% r.h. and lowered back again to 50% r.h. […] Upon increasing the relative humidity to 95% r.h., a gradual mass gain of about 0.3 wt % (relative to the mass at 0% r.h.) was observed. […] The mass increase of 0.1 wt % at 85% r.h. (relative to the starting mass at 50% r.h.) classifies the sample as non-hygroscopic.

[5] = Drying of Form B under vacuum at 40° C.; assay type: physicochemical
Description: A solid sample of Form B was dried in an attempt to dehydrate it. The sample was stored under vacuum (<5 mbar (e.g., about 4 mbar)) at 40° C. overnight or for 1 day.

[6] = Competitive slurry experiment, Form B versus anhydrous form; assay type: physicochemical
Source text: In some embodiments, it would be desirable to provide a crystalline polymorph of compound 1 that, as compared to the amorphous compound 1, imparts improved physical characteristics such as stability and/or ease of formulation. Accordingly, provided herein is a crystalline form (denoted Form B) of compound 1. Form B is a hemihydrate of compound 1. […] In some embodiments, Form B has a water content of about 2.0 wt %. […] In a competitive slurry experiment there was a tendency for the anhydrous form to convert to Form B.

[7] = vacuum (<5 mbar) at 40° C. overnight or for 1 day

SMILES: CCn1cc(C(=O)N2CCOCC2)c(=O)c2cc(NC3Cc4ccccc4C3)cnc21 [Compound 1, 1-ethyl-6-(indan-2-ylamino)-3-(morpholine-4-carbonyl)-1,8-naphthyridin-4-one]
- sedative side effects [1]: without sedative side effects

SMILES: CCn1cc(C(=O)N2CCOCC2)c(=O)c2cc(NC3Cc4ccccc4C3)cnc21 [Form B, 1-ethyl-6-(indan-2-ylamino)-3-(morpholine-4-carbonyl)-1,8-naphthyridin-4-one]
- stable upon storage, duration ([2]; about 25° C. and about 60% r.h.): at least 24 months
- Concentration of compound 1 by HPLC Assay (anhydrous basis) ([2]; 3 months): 99.4% w/w
- IR ([2]; 3 months): complies
- XRPD ([2]; 3 months): complies
- Concentration of compound 1 by HPLC Assay (anhydrous basis) ([2]; 6 months): 99.6% w/w
- IR ([2]; 6 months): complies
- XRPD ([2]; 6 months): complies
- Concentration of compound 1 by HPLC Assay (anhydrous basis) ([2]; 12 months): 99.3% w/w
- IR ([2]; 12 months): complies
- XRPD ([2]; 12 months): complies
- Concentration of compound 1 by HPLC Assay (anhydrous basis) ([2]; 18 months): 99.4% w/w
- IR ([2]; 18 months): complies
- XRPD ([2]; 18 months): complies
- Concentration of compound 1 by HPLC Assay (anhydrous basis) ([2]; 24 months): 99.2% w/w
- IR ([2]; 24 months): complies
- XRPD ([2]; 24 months): complies
- Concentration of compound 1 by HPLC Assay (anhydrous basis) ([2]; time point Initial): 99.5% w/w
- stable upon storage, duration ([3]; about 40° C. and about 75% r.h.): at least 6 months
- Concentration of compound 1 by HPLC Assay (anhydrous basis) ([3]; 1 month): 99.6% w/w
- Concentration of compound 1 by HPLC Assay (anhydrous basis) ([3]; 2 months): 99.3% w/w
- Concentration of compound 1 by HPLC Assay (anhydrous basis) ([3]; 3 months): 99.3% w/w
- IR ([3]; 3 months): complies
- XRPD ([3]; 3 months): complies
- Concentration of compound 1 by HPLC Assay (anhydrous basis) ([3]; 6 months): 99.4% w/w
- IR ([3]; 6 months): complies
- XRPD ([3]; 6 months): complies
- Concentration of compound 1 by HPLC Assay (anhydrous basis) ([3]; time point Initial): 99.5% w/w
- hygroscopicity (in words) [4]: substantially non-hygroscopic
- FT-Raman spectrum after the DVS measurement compared to before ([4]; after DVS cycle 50→0→95→50% r.h.): unchanged
- mass increase (DVS) ([4]; at 85% r.h., relative to the starting mass at 50% r.h.): 0.1 wt %
- hygroscopicity classification ([4]; based on the mass gain at 85% r.h. relative to the initial mass): non-hygroscopic (non-hygroscopic (mass increase <0.2%))
- mass gain (DVS) ([4]; upon increasing the relative humidity to 95% r.h., relative to the mass at 0% r.h.): about 0.3 wt %
- mass loss (DVS) ([4]; upon lowering the relative humidity from 50% r.h. to 0% r.h.): about 0.1 wt %
- final mass (DVS) ([4]; upon lowering the relative humidity from 95% r.h. to 50% r.h.): equal to the starting mass
- stability upon drying [5]: stable upon drying
- loss of H2O of the dried sample (TG-FTIR) ([5]; dried sample, from 50° C. to 200° C.): about 1.9 wt %
- XRPD pattern of the dried sample compared to before drying [5, 7]: unchanged
- dehydration on drying [5, 7]: no dehydration and loss of solvent occurred
- relative stability of forms [6]: more stable than an anhydrous form of compound 1
